The numbers were not newly measured in patent publication US11260065B2, “Storage-stable ready-to-use injectable formulations of thiotepa” (RK Pharma Solutions LLC, priority 2018, dated 2022), which cites them from elsewhere.

For series [1] the following is noted: water and organic solvents.
For series [2] the following is noted: acid medium.

Consider `S=P(N1CC1)(N1CC1)N1CC1` [Thiotepa, tris(1-aziridinyl)phosphine sulfide], for which, in series [1], the Solubility result was “soluble in water and organic solvents”. The Stability entry in series [2] is recorded as “unstable in acid medium”.
